PubChem BioAssay (NCI)
“And” between values parts separate entries of the source, which are not always exact repeats. Equal entries are not always repeated.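 Where inhibition never reached the appropriate level, the endpoint shown equals the highest concentration tested. Otherwise, values were interpolated linearly from a five-concentration, 48-hour dose response in 96-well plates. At the TGI there is no net growth.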

Assays:
Assay in all cases: NCI anticancer screen, dose series, 48 h
[1] = test system: HT29 colon
[2] = test system: M14 melanoma
[3] = test system: K-562 leukemia
[4] = test system: NCI-H226 lung
[5] = test system: RXF 393 renal
[6] = test system: HCC-2998 colon
[7] = test system: SN12C renal
[8] = test system: PC-3 prostate
[9] = test system: UACC-257 melanoma
[10] = test system: SK-MEL-5 melanoma

## Cc1ccccc1NC(=O)O/N=C(\Cl)C(C)C
[1]
  TGI: 11.7 µM
[2]
  TGI: 12.1 µM
[3]
  TGI: 5.51 µM
[4]
  TGI: 30.7 µM
[5]
  TGI: 25.1 µM
[6]
  TGI: 31.5 µM
[7]
  TGI: 3.2 µM
[8]
  TGI: 31 µM
[9]
  TGI: 28.7 µM
[10]
  TGI: 25.9 µM

## CCC1(O)CC(CCN(Cc2ccccc2)C(=O)OCc2ccccc2)C(OCc2ccccc2)C1O (stereo not given)
[1]
  TGI: 31 µM
[2]
  TGI: 42.3 µM
[3]
  TGI: 19.5 µM
[4]
  TGI: 25.3 µM
[5]
  TGI: 41.9 µM
[6]
  TGI: 28.9 µM
[7]
  TGI: 82 µM
[8]
  TGI: 23.2 µM
[9]
  TGI: 34.7 µM
[10]
  TGI: 30.9 µM

## CCC1(c2ccc(N3C(=O)c4cccc5cc([N+](=O)[O-])cc(c45)C3=O)cc2)CCC(=O)NC1=O (stereo not given)
[1]
  TGI: > 100 µM
[2]
  TGI: > 100 µM
[3]
  TGI: > 100 µM
[4]
  TGI: 29 µM
[5]
  TGI: 20.4 µM
[6]
  TGI: > 88.6 µM
[7]
  TGI: 24.8 µM
[8]
  TGI: > 100 µM
[9]
  TGI: > 100 µM
[10]
  TGI: > 100 µM

## CCOC(=O)c1c(N)sc2c1C(C(=O)OCC)CCCC2 (stereo not given)
[1]
  TGI: > 100 µM
[2]
  TGI: > 100 µM
[3]
  TGI: > 100 µM
[4]
  TGI: > 100 µM
[5]
  TGI: > 100 µM
[6]
  TGI: > 100 µM
[7]
  TGI: > 100 µM
[8]
  TGI: > 100 µM
[9]
  TGI: > 100 µM
[10]
  TGI: > 100 µM

## C[C@]12CC[C@H]3[C@@H](CC=C4C[C@@H](N5CCCC5)CC[C@@]43C)[C@@H]1C[C@H](N1CCCCC1)[C@@H]2O
[1]
  TGI: > 100 µM
[2]
  TGI: 40.4 µM
[3]
  TGI: 49.6 µM
[4]
  TGI: > 100 µM
[5]
  TGI: > 100 µM
[6]
  TGI: > 100 µM
[7]
  TGI: > 100 µM
[8]
  TGI: > 100 µM
[9]
  TGI: 83.8 µM
[10]
  TGI: > 100 µM

## CSC(SC)=C(C(=O)c1ccc(Cl)cc1)n1c(=O)sc2cc(Br)ccc21
[1]
  TGI: > 100 µM
[2]
  TGI: > 100 µM
[3]
  TGI: > 100 µM
[4]
  TGI: > 100 µM
[5]
  TGI: > 100 µM
[6]
  TGI: > 100 µM
[7]
  TGI: > 100 µM
[8]
  TGI: > 100 µM
[9]
  TGI: > 100 µM
[10]
  TGI: > 100 µM

## O=C(O)C(Cc1ccccc1)NCc1c(O)ccc2c(-c3ccccc3)cc(=O)oc12 (stereo not given)
[1]
  TGI: > 100 µM
[2]
  TGI: > 100 µM
[3]
  TGI: > 100 µM
[4]
  TGI: > 100 µM
[5]
  TGI: > 100 µM
[6]
  TGI: > 100 µM
[7]
  TGI: > 100 µM
[8]
  TGI: > 100 µM
[9]
  TGI: > 100 µM
[10]
  TGI: > 100 µM

## CC(C)(C)C1CCC2c3c([nH]c4ccccc34)C3C(=O)N(c4ccc([N+](=O)[O-])cc4)C(=O)C3C2C1 (stereo not given)
[1]
  TGI: 19.2 µM
[2]
  TGI: 86.2 µM
[3]
  TGI: 55.3 µM
[4]
  TGI: 29 µM
[5]
  TGI: 23.6 µM
[6]
  TGI: 27.4 µM
[7]
  TGI: 20.8 µM
[8]
  TGI: > 100 µM
[9]
  TGI: > 100 µM
[10]
  TGI: 25.6 µM

## O=C1NC(O)c2cc3ccccc3cc2O1 (stereo not given)
[1]
  TGI: > 100 µM
[2]
  TGI: > 100 µM
[3]
  TGI: > 100 µM
[4]
  TGI: > 100 µM
[5]
  TGI: > 100 µM
[6]
  TGI: > 100 µM
[7]
  TGI: > 100 µM
[8]
  TGI: > 100 µM
[9]
  TGI: > 100 µM
[10]
  TGI: > 100 µM

## C=C1c2nc3ccccc3n2C=C(c2ccc(C)cc2)N1c1ccc(OC)cc1
[1]
  TGI: > 91.2 µM
[2]
  TGI: > 100 µM
[3]
  TGI: > 100 µM
[4]
  TGI: > 100 µM
[5]
  TGI: > 100 µM
[6]
  TGI: > 100 µM
[7]
  TGI: > 100 µM
[8]
  TGI: > 100 µM
[9]
  TGI: > 100 µM
[10]
  TGI: > 100 µM

## COC(=O)C1OC(O[C@H]2CC[C@]3(C)[C@H]4CC=C5[C@@H]6CC(C)(C)CC[C@]6(C(=O)OC6OCC(O)C(O)C6OC6OC(C)C(OC7OCC(O)C(O)C7O)C(O)C6O)[C@H](O)C[C@@]5(C)[C@]4(C)CC[C@H]3C2(C)C)C(O)C(O)C1O (stereo not given in full)
[1]
  TGI: 9.7 µM and 15.3 µM
[2]
  TGI: 7.65 µM and 14.8 µM
[3]
  TGI: > 100 µM
[4]
  TGI: 13.9 µM and 24.8 µM
[5]
  TGI: 29 µM and 31.2 µM
[6]
  TGI: 6.71 µM and 3.44 µM
[7]
  TGI: 3.62 µM and 3.7 µM
[8]
  TGI: 16.9 µM and 16.3 µM
[9]
  TGI: 8.87 µM and 18.6 µM
[10]
  TGI: 19.4 µM and 25.8 µM

## CCOC(=O)c1c(-c2ccc(OC)cc2)ccn1C
[1]
  TGI: > 10 µM
[2]
  TGI: > 10 µM
[3]
  TGI: > 10 µM
[4]
  TGI: > 10 µM
[5]
  TGI: > 10 µM
[6]
  TGI: > 10 µM
[7]
  TGI: > 10 µM
[8]
  TGI: > 9.68 µM
[9]
  TGI: > 10 µM
[10]
  TGI: > 10 µM

## CC1=NN(C(=O)CC(=O)Nc2cccc(C)c2)C(=O)C1N=Nc1ccc(S(=O)(=O)CCOS(=O)(=O)O)cc1 (stereo not given)
[1]
  TGI: 11.5 µM
[2]
  TGI: 17.3 µM
[3]
  TGI: > 100 µM
[4]
  TGI: 6.79 µM
[5]
  TGI: 22 µM
[6]
  TGI: 5.51 µM
[7]
  TGI: 5.51 µM
[8]
  TGI: 11.2 µM
[9]
  TGI: 23.1 µM
[10]
  TGI: 2.88 µM

## N#Cc1c(NC(=S)Nc2ccc(Cl)cc2)sc2c1CCN(N1CCc3c(sc(NC(=S)Nc4ccc(Cl)cc4)c3C#N)C1)C2
[1]
  TGI: 26.5 µM
[2]
  TGI: 23.2 µM
[3]
  TGI: > 100 µM
[4]
  TGI: 34.4 µM
[5]
  TGI: 78.3 µM
[6]
  TGI: > 100 µM
[7]
  TGI: > 100 µM
[8]
  TGI: > 100 µM
[9]
  TGI: > 100 µM
[10]
  TGI: 22.3 µM

## N#CCCC(C=O)(CCC#N)CCC#N
[1]
  TGI: > 100 µM
[2]
  TGI: > 100 µM
[3]
  TGI: > 100 µM
[4]
  TGI: > 100 µM
[5]
  TGI: > 100 µM
[6]
  TGI: > 100 µM
[7]
  TGI: > 100 µM
[8]
  TGI: > 100 µM
[9]
  TGI: > 100 µM
[10]
  TGI: > 100 µM

## N#Cc1c(-c2ccc([N+](=O)[O-])cc2)c(C#N)c(=O)n(NS(=O)(=O)c2ccccc2)c1S
[1]
  TGI: > 100 µM
[2]
  TGI: > 100 µM
[3]
  TGI: 77.4 µM
[4]
  TGI: > 100 µM
[5]
  TGI: > 100 µM
[6]
  TGI: > 100 µM
[7]
  TGI: 34.9 µM
[8]
  TGI: > 100 µM
[9]
  TGI: > 100 µM
[10]
  TGI: 30.4 µM
